Laboratory results: publication PMC10502027, “Class III hybrid cluster protein homodimeric architecture shows evolutionary relationship with Ni, Fe-carbon monoxide dehydrogenases” (Nature Communications, 2023)

Biological target: T1, Mm HCP (Methanothermobacter marburgensis, UniProt D9PYV4)
T1 construct: full length with N-terminal rubredoxin domain (Met1-Arg52), C-terminal His6-tag, recombinant from E. coli C41(DE3) with pBBRISC, anaerobically purified; homodimer
T1 sequence (D9PYV4 1-491): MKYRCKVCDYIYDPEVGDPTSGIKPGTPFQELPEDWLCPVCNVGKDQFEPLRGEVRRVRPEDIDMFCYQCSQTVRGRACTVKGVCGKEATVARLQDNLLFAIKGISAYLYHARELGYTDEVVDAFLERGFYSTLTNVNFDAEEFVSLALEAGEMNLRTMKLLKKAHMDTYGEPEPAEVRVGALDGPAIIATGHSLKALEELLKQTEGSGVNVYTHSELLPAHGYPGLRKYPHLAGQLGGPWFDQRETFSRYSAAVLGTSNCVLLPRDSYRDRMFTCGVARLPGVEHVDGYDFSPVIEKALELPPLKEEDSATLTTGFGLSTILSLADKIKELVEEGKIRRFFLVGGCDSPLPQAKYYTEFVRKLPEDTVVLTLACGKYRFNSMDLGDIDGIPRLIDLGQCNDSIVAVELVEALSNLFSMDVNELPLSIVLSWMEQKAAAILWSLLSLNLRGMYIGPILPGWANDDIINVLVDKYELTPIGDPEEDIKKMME
Format: binding

Structure (SMILES): [S]12[Fe]3[S]4[Fe]1[S]1[Fe]2[S]3[Fe]41 [[4Fe-4S] cluster]
- X-ray crystal structure, 2.8 Å: The Fe ions, [4Fe-4S] cluster and hybrid cluster ([4Fe-2S-3O] cluster) are represented as spheres
